What was measured:
Assay type in all cases: functional, cell-based
[1] = system: CCRF-CEM; experiment: Cytotoxicity against human CCRF-CEM cells assessed as reduction in cell viability incubated for 72 hrs
[2] = system: Raji; experiment: Cytotoxicity against human Raji cells assessed as reduction in cell viability incubated for 72 hrs
[3] = system: HeLa; experiment: Cytotoxicity against human HeLa cells assessed as reduction in cell viability incubated for 3 days; settings: 72 h
[4] = system: HSC-3; experiment: Cytotoxicity against human HSC-3 cells assessed as reduction in cell viability incubated for 3 days; settings: HSC-3, 72 h

SMILES | IC50 [1] [µM] | IC50 [2] [µM] | IC50 [3] [µM] | IC50 [4] [µM]
CCOC(=O)/C=C/c1ccc[nH]1 | > 10 | > 10 |  | 
CCOC(=O)/C=C/C=C/C=C/C=C/c1ccco1 | > 10 | > 10 |  | 
CCOC(=O)/C=C/C=C/C=C/C=C/c1[nH]ccc1Cl | 0.27 | > 10 | > 10 | > 10
CCOC(=O)/C=C/C=C/c1nccs1 | > 10 | > 10 |  | 
CCOC(=O)/C=C/C=C/C=C/c1nccs1 | 4.5 | 4.35 |  | 
CCOC(=O)/C=C/C=C/C=C/C=C/c1ccc[nH]1 | 1.34 | 4.09 |  | 
CCOC(=O)/C=C/C=C/c1ccco1 | > 10 | > 10 |  | 
O=C(/C=C/C=C/C=C/c1ccc[nH]1)OCc1ccccc1 | 0.83 | > 10 |  | 
O=C(/C=C/C=C/C=C/C=C/c1ccc[nH]1)c1ccccc1 | 0.72 | 5.99 |  | 
COc1cc(\C(C)=C/C=C/C=C/C=C/c2[nH]ccc2Cl)oc(=O)c1C | 1.76 | > 10 |  | 
O=C(/C=C/C=C/C=C/c1ccc[nH]1)c1ccccc1 | 3.07 | 9.89 |  | 
CCOC(=O)/C=C/C=C/C=C/C=C/c1cccn1C | > 10 | > 10 |  | 
CCOC(=O)/C=C/C=C/C=C/C=C/c1nccs1 | > 10 | > 10 |  | 
CCOC(=O)/C=C/C=C/C=C/c1ccco1 | > 10 | > 10 |  | 
O=C(/C=C/C=C/C=C/C=C/c1ccc[nH]1)OCc1ccccc1 | 0.19 | 1.4 |  | 
CCOC(=O)/C=C/C=C/C=C/c1ccc[nH]1 | 3.67 | > 10 |  | 
CCOC(=O)/C=C/C=C/C=C/c1[nH]ccc1Cl | 2.42 | > 10 |  | 
CCOC(=O)/C=C/C=C/c1ccc[nH]1 | > 10 | > 10 |  | 
CCOC(=O)/C=C/C=C/C=C/C=C/C=C/c1ccc[nH]1 | 0.45 | > 10 |  | 
O=C(/C=C/C=C/C=C/C=C/c1[nH]ccc1Cl)OCc1ccccc1 | 0.28 | 6.7 |  | 
CCOC(=O)/C=C/C=C/c1[nH]ccc1Cl | > 10 | > 10 |  | 
COc1cc(/C=C/C=C/C=C/C=C/c2[nH]ccc2Cl)oc(=O)c1 [AUXARCONJUGATIN B] | 0.51 | 5.74 |  | 
